Data published in patent publication US9370515B2, “Mixed lineage kinase inhibitors and method of treatments” (CALIFIA BIO, INC., priority 2013, dated 2016).

These molecules were tested against MLK-3 (Homo sapiens, UniProt Q16584) (assay: Biochemical assay for the inhibition of kinase activity for MLK-3 (33P-ATP, HOTSPOT filter binding)). Conditions: activated MLK-3 20 nM, ATP 50 μM, myelin basic protein 20 μM, 20 minutes room temperature.
Chain of MLK-3 (Q16584 whole entry): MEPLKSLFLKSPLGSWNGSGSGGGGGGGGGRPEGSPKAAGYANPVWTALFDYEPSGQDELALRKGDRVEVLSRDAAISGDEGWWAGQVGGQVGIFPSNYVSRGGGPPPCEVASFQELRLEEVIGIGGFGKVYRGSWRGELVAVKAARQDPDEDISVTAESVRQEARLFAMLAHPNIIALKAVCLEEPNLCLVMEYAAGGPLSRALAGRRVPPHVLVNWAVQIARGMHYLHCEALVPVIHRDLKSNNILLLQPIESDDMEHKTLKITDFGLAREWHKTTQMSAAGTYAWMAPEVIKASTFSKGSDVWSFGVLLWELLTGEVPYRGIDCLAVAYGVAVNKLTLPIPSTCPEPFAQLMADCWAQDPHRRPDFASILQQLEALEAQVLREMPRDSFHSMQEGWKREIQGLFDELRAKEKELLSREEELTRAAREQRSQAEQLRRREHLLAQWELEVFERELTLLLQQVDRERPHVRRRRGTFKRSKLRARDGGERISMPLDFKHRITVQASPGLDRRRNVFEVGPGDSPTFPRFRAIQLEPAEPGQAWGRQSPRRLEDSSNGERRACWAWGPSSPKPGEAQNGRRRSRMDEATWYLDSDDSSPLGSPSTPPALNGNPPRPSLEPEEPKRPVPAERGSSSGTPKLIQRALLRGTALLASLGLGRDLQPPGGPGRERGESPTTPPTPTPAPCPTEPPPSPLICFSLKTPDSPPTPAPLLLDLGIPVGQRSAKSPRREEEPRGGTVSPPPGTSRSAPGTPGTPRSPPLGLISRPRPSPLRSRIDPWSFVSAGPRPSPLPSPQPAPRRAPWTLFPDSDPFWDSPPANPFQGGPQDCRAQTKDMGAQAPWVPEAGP
Experimental: Biochemical Assay for the Inhibition of Kinase Activity for MLK-3: Myelin basic protein (20 μM final concentration) is dissolved in 20 mM Hepes (pH 7.5) containing […], […], 0.02% Brij35, 0.02 mg/ml BSA, 0.1 μM Na3VO4, 2 mM DTT, and 1% DMSO. Activated MLK-3 is added and mixed (20 nM final concentration), and inhibitors are added in DMSO. ^33P-ATP (specific activity 500 μCi/μL) is delivered into the reaction mixture to initiate the reaction (ATP concentration is 50 μM) and the mixture is incubated at room temperature for 20 minutes. % Activity is determined using a proprietary HOTSPOT™ microfluidic filter binding technology. See, Expert Opin. Drug Discov. 2008 June; 3(6): 607-621.
Molecule `COc1ccc(Nc2ccc3ncc(-c4cc5cccc(OC)c5s4)n3n2)cc1OC(F)(F)F` [Compound 185, N-(4-methoxy-3-(trifluoromethoxy)phenyl)-3-(7-methoxybenzo[b]thiophen-2-yl)imidazo[1,2-b]pyridazin-6-amine] has an IC50 of under 5000 nM.
Work on `COc1cccc2cc(-c3cnc4ccc(N[C@H]5CC[C@H](O)CC5)nn34)[nH]c12` [Compound 87, trans-4-(3-(7-methoxy-1H-indol-2-yl)imidazo[1,2-b]pyridazin-6-ylamino)cyclohexanol] yielded an IC50 of under 100 nM.
For `COc1cncc2cc(-c3cnc4ccc(N[C@H]5CC[C@H](OC)CC5)nn34)sc12` [Compound 217], the IC50 was 100 to 500 nM.
`COc1cc2cc(-c3cnc4ccc(NCCC(C)CO)nn34)sc2cc1OC` (stereo not drawn) [Compound 171, 4-(3-(5,6-dimethoxybenzo[b]thiophen-2-yl)imidazo[1,2-b]pyridazin-6-ylamino)-2-methylbutan-1-ol] gave an IC50 of under 100 nM.
Work on `COc1ccc(Nc2ccc3ncc(-c4cc5c(OC)c(OC)c(OC)cc5s4)n3n2)cc1OC` [Compound 76, 3-(4,5,6-trimethoxybenzo[b]thiophen-2-yl)-N-(3,4-dimethoxyphenyl)imidazo[1,2-b]pyridazin-6-amine] yielded an IC50 of under 5000 nM.
`O[C@H]1CC[C@H](Nc2ccc3ncc(-c4cc5cccnc5s4)n3n2)CC1` [Compound 205, trans-4-(3-(thieno[2,3-b]pyridin-2-yl)imidazo[1,2-b]pyridazin-6-ylamino)cyclohexanol] showed an IC50 of 100 to 500 nM.
Molecule `COc1cc(Nc2ccc3ncc(-c4cc5ccccc5s4)n3n2)ccc1OC(C)C` [Compound 30, 3-(benzo[b]thiophen-2-yl)-N-(4-isopropoxy-3-methoxyphenyl)imidazo[1,2-b]pyridazin-6-amine] has an IC50 of under 5000 nM.
For `COc1cc2cc(-c3cnc4ccc(-c5ccc(CN6CCN(C)CC6)cc5)nn34)sc2cc1OC` [Compound 73, 3-(5,6-dimethoxybenzo[b]thiophen-2-yl)-6-(4-((4-methylpiperazin-1-yl)methyl)phenyl)imidazo[1,2-b]pyridazine], the IC50 was 500 to 1000 nM.
With `Cc1nc2ccc(N[C@H]3CC[C@H](O)CC3)nn2c1-c1cc2ccccc2s1` [Compound 111, 4-(3-(benzo[b]thiophen-2-yl)-2-methylimidazo[1,2-b]pyridazin-6-ylamino)cyclohexanol] the IC50 was under 5000 nM.
`Cc1cncc2cc(-c3cnc4ccc(N[C@H]5CC[C@H](O)CC5)nn34)sc12` [Compound 215, trans-4-(3-(7-methylthieno[3,2-c]pyridin-2-yl)imidazo[1,2-b]pyridazin-6-ylamino)cyclohexanol] was tested, and the IC50 was under 100 nM.
Molecule `c1cc2cc(-c3cnc4ccc(NCC5CC5)nn34)ccc2[nH]1` [Compound 150, N-(cyclopropylmethyl)-3-(1H-indol-5-yl)imidazo[1,2-b]pyridazin-6-amine] has an IC50 of under 5000 nM.
Work on `COc1ccc(Nc2ccc3ncc(-c4cc5ccncc5s4)n3n2)cc1OC` [Compound 218, N-(3,4-dimethoxyphenyl)-3-(thieno[2,3-c]pyridin-2-yl)imidazo[1,2-b]pyridazin-6-amine] yielded an IC50 of under 100 nM.
`COc1cccc2cc(-c3cnc4ccc(N[C@H]5CC[C@H](OC)CC5)nn34)[nH]c12` [Compound 199, trans-3-(7-methoxy-1H-indol-2-yl)-N-(4-methoxycyclohexyl)imidazo[1,2-b]pyridazin-6-amine] was tested, and the IC50 was under 5000 nM.
`CO[C@H]1CC[C@H](Nc2ccc3ncc(-c4cc5cncc(C)c5s4)n3n2)CC1` [Compound 216] showed an IC50 of 100 to 500 nM.
`OCCN1CCN(c2ccc3ncc(-c4cc5ccccc5s4)n3n2)CC1` [Compound 119, 2-(4-(3-(benzo[b]thiophen-2-yl)imidazo[1,2-b]pyridazin-6-yl)piperazin-1-yl)ethanol] was tested, and the IC50 was under 5000 nM.
For `OC[C@H]1CC[C@H](Nc2ccc3ncc(-c4cc5ccccc5s4)n3n2)CC1` [Compound 139], the IC50 was 100 to 500 nM.
`OCCCCNc1ccc2ncc(-c3ccc4ccccc4c3)n2n1` [Compound 160, 4-(3-(naphthalen-3-yl)imidazo[1,2-b]pyridazin-6-ylamino)butan-1-ol] gave an IC50 of 500 to 1000 nM.
Molecule `COc1cccc2cc(-c3cnc4ccc(N[C@H]5CC[C@H](OC)CC5)nn34)sc12` [Compound 200, trans-3-(7-methoxybenzo[b]thiophen-2-yl)-N-(4-methoxycyclohexyl)imidazo[1,2-b]pyridazin-6-amine] has an IC50 of 500 to 1000 nM.
Molecule `COc1cc(Nc2ccc3ncc(-c4cc5ccccc5s4)n3n2)ccc1OCCCO` [Compound 27, 3-(4-(3-(benzo[b]thiophen-2-yl)imidazo[1,2-b]pyridazin-6-ylamino)-2-methoxyphenoxy)propan-1-ol] has an IC50 of 100 to 500 nM.
`CC(CO)CCNc1ccc2ncc(-c3cc4ccccc4s3)n2n1` (stereo not drawn) [Compound 138, 4-(3-(benzo[b]thiophen-2-yl)imidazo[1,2-b]pyridazin-6-ylamino)-2-methylbutan-1-ol] was tested, and the IC50 was 100 to 500 nM.
`CN1CCN(Cc2cccc(-c3ccc4ncc(-c5cc6ccccc6s5)n4n3)c2)CC1` [Compound 40, 3-(benzo[b]thiophen-2-yl)-6-(3-((4-methylpiperazin-1-yl)methyl)phenyl)imidazo[1,2-b]pyridazine] was tested, and the IC50 was under 5000 nM.
Work on `COc1ccc(Nc2ccc3ncc(-c4cc5cc(C)ccc5s4)n3n2)cc1OC` [Compound 191, N-(3,4-dimethoxyphenyl)-3-(5-methylbenzo[b]thiophen-2-yl)imidazo[1,2-b]pyridazin-6-amine] yielded an IC50 of under 5000 nM.
For `COc1ccc2cc(-c3cnc4ccc(N[C@H]5CC[C@H](O)CC5)nn34)sc2c1` [Compound 172, trans-4-(3-(6-methoxybenzo[b]thiophen-2-yl)imidazo[1,2-b]pyridazin-6-ylamino)cyclohexanol], the IC50 was 100 to 500 nM.
Molecule `COc1ccc(Nc2ccc3ncc(-c4cc5ccccc5s4)n3n2)cc1C(=O)O` [Compound 43, 5-(3-(benzo[b]thiophen-2-yl)imidazo[1,2-b]pyridazin-6-ylamino)-2-methoxybenzoic acid] has an IC50 of 500 to 1000 nM.
For `CCCN(C)c1ccc2ncc(-c3cc4ccccc4s3)n2n1` [Compound 107, 3-(benzo[b]thiophen-2-yl)-N-methyl-N-propylimidazo[1,2-b]pyridazin-6-amine], the IC50 was under 5000 nM.
With `COc1cc2cc(-c3cnc4ccc(-c5ccc6[nH]ccc6c5)nn34)sc2cc1OC` [Compound 69, 6-(1H-indol-5-yl)-3-(5,6-dimethoxybenzo[b]thiophen-2-yl)imidazo[1,2-b]pyridazine] the IC50 was under 100 nM.
`Cc1ccc2sc(-c3cnc4ccc(N[C@H]5CC[C@H](O)CC5)nn34)cc2c1` [Compound 192, trans-4-(3-(5-methylbenzo[b]thiophen-2-yl)imidazo[1,2-b]pyridazin-6-ylamino)cyclohexanol] was tested, and the IC50 was 500 to 1000 nM.
With `COc1cc2cc(-c3cnc4ccc(NC5CCC[C@H](O)C5)nn34)sc2cc1OC` (stereo in doubt) [Compound 174, 3-(3-(5,6-dimethoxybenzo[b]thiophen-2-yl)imidazo[1,2-b]pyridazin-6-ylamino)cyclohexanol] the IC50 was under 100 nM.
`O[C@H]1CC[C@H](Nc2ccc3ncc(-c4cc5cc(F)ccc5s4)n3n2)CC1` [Compound 166, trans-4-(3-(5-fluorobenzo[b]thiophen-2-yl)imidazo[1,2-b]pyridazin-6-ylamino)cyclohexanol] gave an IC50 of 500 to 1000 nM.
`COc1ccc(Nc2ccc3ncc(-c4cc5cccc(C)c5[nH]4)n3n2)cc1OC` [Compound 195, N-(3,4-dimethoxyphenyl)-3-(7-methyl-1H-indol-2-yl)imidazo[1,2-b]pyridazin-6-amine] was tested, and the IC50 was under 5000 nM.
`COc1cc(Nc2ccc3ncc(-c4cc5ccccc5s4)n3n2)ccc1OCC1CC1` [Compound 28, 3-(benzo[b]thiophen-2-yl)-N-(4-(cyclopropylmethoxy)-3-methoxyphenyl)imidazo[1,2-b]pyridazin-6-amine] showed an IC50 of under 5000 nM.
With `COc1ccc2c(c1)cc(-c1cnc3ccc(N[C@H]4CC[C@H](O)CC4)nn13)n2C` [Compound 194, trans-4-(3-(5-methoxy-1-methyl-1H-indol-2-yl)imidazo[1,2-b]pyridazin-6-ylamino)cyclohexanol] the IC50 was under 5000 nM.
Work on `COc1ccc(Nc2ccc3ncc(-c4cc5cccc(OC)c5[nH]4)n3n2)cc1OC` [Compound 5, 3-(7-methoxy-1H-indol-2-yl)-N-(3,4-dimethoxyphenyl)imidazo[1,2-b]pyridazin-6-amine] yielded an IC50 of under 100 nM.
For `COc1ccc2sc(-c3cnc4ccc(N[C@H]5CC[C@H](O)CC5)nn34)cc2c1` [Compound 168, trans-4-(3-(5-methoxybenzo[b]thiophen-2-yl)imidazo[1,2-b]pyridazin-6-ylamino)cyclohexanol], the IC50 was 100 to 500 nM.
Molecule `CO[C@H]1CC[C@H](N(C)c2ccc3ncc(-c4cc5cncc(C)c5s4)n3n2)CC1` [Compound 220, N-((1r,4r)-4-methoxycyclohexyl)-N-methyl-3-(7-methylthieno[3,2-c]pyridin-2-yl)imidazo[1,2-b]pyridazin-6-amine] has an IC50 of 100 to 500 nM.
`COc1ccc(Nc2ccc3ncc(-c4cc5cccc(C)c5s4)n3n2)cc1OC` [Compound 202, N-(3,4-dimethoxyphenyl)-3-(7-methylbenzo[b]thiophen-2-yl)imidazo[1,2-b]pyridazin-6-amine] showed an IC50 of under 5000 nM.
`COc1ccc(Nc2ccc3ncc(-c4cc5ccccc5s4)n3n2)cc1O` [Compound 31, 5-(3-(benzo[b]thiophen-2-yl)imidazo[1,2-b]pyridazin-6-ylamino)-2-methoxyphenol] showed an IC50 of under 5000 nM.
In the case of `COc1ccc(Nc2ccc3ncc(-c4cc(OC)c(OC)c(OC)c4)n3n2)cc1OC` [Compound 11, 3-(3,4,5-trimethoxyphenyl)-N-(3,4-dimethoxyphenyl)imidazo[1,2-b]pyridazin-6-amine], the IC50 is reported as under 5000 nM.
With `COc1ccc2[nH]c(-c3cnc4ccc(Nc5ccc(OC)c(OC)c5)nn34)cc2c1` [Compound 3, 3-(5-methoxy-1H-indol-2-yl)-N-(3,4-dimethoxyphenyl)imidazo[1,2-b]pyridazin-6-amine] the IC50 was 100 to 500 nM.
